From paper PMC10376691, “Inhibition of Acetylcholinesterase and Amyloid-β Aggregation by Piceatannol and Analogs: Assessing In Vitro and In Vivo Impact on a Murine Model of Scopolamine-Induced Memory Impairment” (Antioxidants, 2023)
Entries after “also recorded” stand apart in the source; their conditions may differ. Read-outs that look alike come from different tables or passages of the source.

How the values were obtained:
[1] = system: scopolamine-induced amnesiac ICR mice; assay: Passive avoidance test in scopolamine-induced amnesiac ICR mice; type: in vivo, mouse; conditions: PIC 50 mg/kg oral once a day, donepezil 5 mg/kg oral, scopolamine 1 mg/kg i.p.
From the text: The scopolamine-induced cognitive dysfunctions of amnesiac ICR mice were used to evaluate the effects of PIC pre-treatments on the improvement of learning and memory functions, following previous reports. The animal experimental protocols were reviewed and approved by the Institutional Animal Care and Use Committee, Taipei Medical University (No. LAC-2021-0488). After a two-week acclimation, the mice were randomly divided into four groups (N = 5 for each group). In the first stage, the mice in the PIC group were orally pre-treated with PIC (50 mg/kg) using a feeding tube, once a day from day 1 to day 7; the mice in the blank, control, and donepezil groups were treated with the same volume of distilled water from day 1 to day 7. In the second stage, on day 8 and day 9, the mice in the PIC group and the donepezil group were orally treated once with PIC (50 mg/kg) and donepezil (positive control, 5 mg/kg), respectively, using a feeding tube; the mice in the blank and the control groups were treated with the same volume of distilled water. After 30 min, each mouse was injected intraperitoneally with scopolamine (1 mg/kg, dissolved in PBS), and the mice in the blank group were each injected with an equal volume of PBS instead of the scopolamine solution. Again, 30 min after the scopolamine or PBS injection, a learning and memory evaluation was performed on each mouse with the use of a 2-day passive avoidance test. All the mice were sacrificed at the end of the animal experiments, and the brain tissues of the mice in each group were isolated, weighted, and stored at −80 °C for further use.
A 2-day passive avoidance test, which included an acquisition trial on the first day and a retention trial on the second day, was used to evaluate the learning and memory functions of the scopolamine-induced cognitive dysfunctions of amnesiac ICR mice after PIC and donepezil treatments, following previous reports. A shuttle chamber (AccuScan Instruments Inc., Columbus, OH, USA) with a light box and a dark box separated by a sliding door was used. On day 8, after acclimation around the shuttle chamber for 30 min, each scopolamine-injected or PBS-injected mouse was placed in the light box for the acquisition trial. Once the mouse entered the dark box, the step-through latency (s) was recorded, and the sliding door was closed at the same time. Immediately after, the mouse was administered an electric foot shock (0.3 mA for 3 s) via the wired metal floor and then sent back to the cage. […] The step-through latency (period of time that each mouse stayed in the light box) was recorded again. […] The protein content of the whole brain extracts from the mice was quantified using the BCA protein kit, with bovine serum albumin as the standard protein. […]

[2] = DPPH radical scavenging activity
Protocol: DPPH radical scavenging activity was assayed following a previous report, with some modifications. […] DMSO was used instead of a sample solution in the blank group. […] The scavenging activity of the DPPH radical (%) was calculated with the following equation: (△A515blank − △A515sample) ÷ △A515blank × 100%. The IC50 of the DPPH radical scavenging activity of PIC and its analogs or that of Trolox was calculated from each linear equation by three test concentrations and their radical scavenging activities.

[3] = target: T1, Aβ peptide (1–42) (Homo sapiens, UniProt P05067); assay: biochemical
T1 construct: The Aβ peptide (1–42) was synthesized and purchased from Kelowna International Scientific Inc; purchased Kelowna International Scientific Inc. (New Taipei, Taiwan); host or cells: chemical synthesis
T1 sequence (P05067 672-713): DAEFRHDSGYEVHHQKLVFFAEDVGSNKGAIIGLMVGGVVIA
Protocol: To prepare the 10 μM Aβ peptide working solution, commercial Aβ peptide was first weighted and dissolved in HFIP to 1 mM. Next, the solvent was evaporated in a hood and then re-dissolved using 100 μL of 60 mM NaOH. It was then diluted to 10 μM working solutions with 50 mM phosphate buffer (pH 7.4, containing 150 mM sodium chloride and 1 mM EDTA), following previous reports. […] DMSO instead of the sample solution was used as the control. The 50 mM phosphate buffer was used instead of the Aβ working solution as the sample blank. […] The IC50 of the inhibition against the Aβ aggregation of PIC and its analogs was calculated from each linear equation using three test concentrations and their inhibition capacities.

[4] = target: T2, mouse AChE activity in the brain extracts (Mus musculus, UniProt P21836); assay: AChE activity in brain extracts of scopolamine-induced ICR mice; type: in vivo; conditions: PIC 50 mg/kg, donepezil 5 mg/kg oral; vs control p < 0.05
T2 construct: The protein content of the whole brain extracts from the mice was quantified using the BCA protein kit; from tissue; host or cells: whole brain extract of scopolamine-induced ICR mice
T2 sequence (P21836 32-614): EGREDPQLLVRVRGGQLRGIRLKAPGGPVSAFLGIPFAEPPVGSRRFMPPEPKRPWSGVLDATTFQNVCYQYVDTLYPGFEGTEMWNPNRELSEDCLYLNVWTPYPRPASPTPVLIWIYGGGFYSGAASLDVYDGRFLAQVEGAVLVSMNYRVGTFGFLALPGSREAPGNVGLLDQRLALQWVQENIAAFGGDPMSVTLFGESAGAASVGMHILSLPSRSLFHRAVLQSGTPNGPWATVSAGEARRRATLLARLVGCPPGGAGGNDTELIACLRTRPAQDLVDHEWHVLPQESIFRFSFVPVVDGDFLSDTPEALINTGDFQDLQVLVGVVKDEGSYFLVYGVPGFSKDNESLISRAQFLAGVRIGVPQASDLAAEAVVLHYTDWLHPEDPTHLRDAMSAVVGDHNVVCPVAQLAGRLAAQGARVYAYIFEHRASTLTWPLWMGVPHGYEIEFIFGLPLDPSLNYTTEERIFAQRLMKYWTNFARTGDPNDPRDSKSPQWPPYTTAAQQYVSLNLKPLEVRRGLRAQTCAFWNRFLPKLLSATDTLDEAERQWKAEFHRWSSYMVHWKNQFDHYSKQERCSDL
Protocol: The AChE activities in the mouse brain tissue extract were assayed following the method in Section 2.3, with some modifications. The protein content of the whole brain extracts from the mice was quantified using the BCA protein kit, with bovine serum albumin as the standard protein.

[5] = rats, cited from earlier work
[6] = co-administration of PIC and RSV, each at 180 μmol/kg

Compound: Oc1cc(O)cc(C=Cc2ccc(O)c(O)c2)c1 [PIC, 3,5,3′,4′-tetrahydroxystilbene]
- step-through latency, acquisition trial (first day) [1]: no significant difference among the groups
- step-through latency, retention trial (second day) ([1]; vs control p < 0.05): improved learning behavior; also recorded: longer staying time
- IC50 ([2]; 120 μM DPPH in methanol, 37 °C, 20 min): 40.2 µM
- DPPH scavenging capacity, fold higher than that of RSV ([2]; ratio of IC50, vs RSV): 2.5 fold
- DPPH scavenging capacity, fold higher than that of Trolox ([2]; ratio of IC50, vs Trolox): 2.07 fold
- IC50 [3]: 0.48 µM
- anti-Aβ aggregation capacity, fold higher than that of RSV ([3]; vs RSV): 2.94 fold
- AChE activity in the brain extracts [4]: reductions in AChE activities
- AUC0–8h of intact PIC/AUC0–8h of total PIC metabolites ([5]; PIC 90 μmol/kg): 18.6%
- AUC0–8h of intact PIC/AUC0–8h of total PIC metabolites ([5]; PIC 180 μmol/kg): 23.9%
- AUC0–8h of intact PIC/AUC0–8h of total PIC metabolites ([5]; PIC 360 μmol/kg): 25.1%
- AUC0–8h in plasma, intact compound [5, 6]: 8.6 µM·h
- AUC0–8h of intact PIC/AUC0–8h of total PIC metabolites [5, 6]: 16.3%
- AUC0–8h in plasma, intact compound ([5]; intragastric, 90 μmol/kg): 4.3 µM·h
- AUC0–8h in plasma, intact compound ([5]; intragastric, 180 μmol/kg): 12.3 µM·h
- AUC0–8h in plasma, intact compound ([5]; intragastric, 360 μmol/kg): 20.6 µM·h
